Data set [1] deals with Caco-2 (colon adenocarcinoma). The data set is described as follows: MTT cytotoxicity assay, Caco-2. Format: cell-based. The following applies: Homo sapiens, 48 hours. The protocol: (§1) Four cancerous cell lines HT29/219 (human, colon, epithelial-like, carcinoma), Caco2 (human, colon, adenocarcinoma), NIH-3T3 (Swiss NIH mouse, embryo fibroblast), and T47D (human, breast, ductal carcinoma) were purchased from the Pasteur Institute, Tehran, Iran. The cells were maintained in RPMI 1640, supplemented with 10% fetal bovine serum, 0.28 units/mL insulin, 100 μg/mL streptomycin, 100 units/mL penicillin, and 0.3 mg/mL glutamine. The cells were grown at 37°C in a humidified atmosphere of 5% CO2, in air.
(§2) The cytotoxicity of the compounds isolated from S. spicigera was assayed using the MTT cytotoxicity assay. The cells (3 × 10^ 4) were plated in 500 μL of medium/well in 48-well plates (NUNC Cell Culture Flasks, Denmark). After an overnight incubation at 37°C, in 5% CO2, and a humidified atmosphere, the samples were added to the cells to a final concentration of 500 μg/mL. “Methotrexate” (positive control) and pure compounds were examined at concentrations ranging from 5, 10, 20, 40, 80, and 100 μg/mL. The plates were incubated at 37°C, in 5% CO2, humidified atmosphere, for 48 hours. After 48 hours, 50 μL of 5 mg/mL MTT (dissolved in PBS) was added per well. After three hours of incubation, the MTT solution was removed and the cells were washed with 100 μL of PBS, twice. One hundred and fifty microlitres of DMSO was added per well, to solubilize the formazan crystals. The optical densities of the wells were then measured at 570 nm (690 nm reference wavelength). By referring to the control (medium with DMSO), the cell survival was assessed.
In general terms: Formazan colour is commonly taken as a measure of viable cells.

The subject of data set [2] is NIH 3T3 (Swiss embryo fibroblast). The data set is described as follows: MTT cytotoxicity assay, NIH 3T3. The following applies: Mus musculus, NIH3T3, 48 hours. Format: cell-based. On the procedure: as §1, §2
The subject of data set [3] is HT-29 (colon adenocarcinoma). The data set is described as follows: MTT cytotoxicity assay, HT-29. The class given is cell-based. As to conditions: Homo sapiens, 48 hours. The protocol: as §1, §2
The test system of data set [4] is T47D (human, breast, ductal carcinoma). The data set is described as follows: MTT cytotoxicity assay, T47D. Format: cell-based. As to conditions: 48 hours. The protocol:
as §1, §2

Data set [5] can be described thus: Brine shrimp lethality assay (BSA). As to conditions: Artemia salina (brine shrimp) nauplii, in vivo, probit analysis, read-out: LC50 against Artemia salina larvae. On the procedure: Gohari et al. reported the method which was adopted to study the cytotoxic activity of the compounds [11]. Water life brand brine shrimp (Artemia salina) eggs were purchased from the Shalat Center (Tehran). The eggs were hatched in a flask containing 300 mL artificial seawater made […]. The flask was well aerated with the aid of an air pump and kept in a water bath at 29-30°C. A bright light was left on. The nauplii hatched within 48 h. The extracts and pure compounds were dissolved in normal saline. Different concentrations were obtained by serial dilution. Solution of each concentration (500 μL) was transferred into clean 24-well plates via a pipette, and aerated seawater having 10–20 nauplii (500 μL) was added. A check count was performed and the number alive noted after 24 h. The mortality end point of the bioassay was determined as the absence of controlled forward motion during 30 seconds of observation. […] Lethality percentage was determined and LC50 calculated based on probit analysis with 95% of confidence interval [11].

Data set [6] deals with HT29/219, Caco2, NIH-3T3, and T47D. The data set is described as follows: MTT cytotoxicity assay, all four cell lines (statement in words). The following applies: 48 hours. Format: cell-based. On the procedure: as §1
The cytotoxicity of the compounds isolated from S. spicigera was assayed using the MTT cytotoxicity assay. The cells (3 × 10^ 4) were plated in 500 μL of medium/well in 48-well plates (NUNC Cell Culture Flasks, Denmark). After an overnight incubation at 37°C, in 5% CO2, and a humidified atmosphere, the samples were added to the cells to a final concentration of 500 μg/mL. “Methotrexate” (positive control) and pure compounds were examined at concentrations ranging from 5, 10, 20, 40, 80, and 100 μg/mL. The plates were incubated at 37°C, in 5% CO2, humidified atmosphere, for 48 hours. After 48 hours, 50 μL of 5 mg/mL MTT (dissolved in PBS) was added per well. […] The optical densities of the wells were then measured at 570 nm (690 nm reference wavelength). By referring to the control (medium with DMSO), the cell survival was assessed.

Values after ≈ are worked out from the molar mass of the structure shown. Structures can show the parent of a compound that is named as a salt.

By IC50 is commonly meant the midpoint of a concentration-inhibition curve. In the case of `O=C(c1c(O)cc(O)cc1O)C(O)Cc1ccc(O)cc1` (stereo not shown) [compound 7, nubigenol], the IC50 was 143 µg/mL (≈ 493 µM) in data set [1], 112 µg/mL (≈ 386 µM) in data set [2], greater than 150 µg/mL in data set [3] and 132 µg/mL (≈ 455 µM) in data set [4].
As a reminder, the LC50 is the concentration that kills 50% of the test population. As for `O=C1CC(c2cc(O)cc(O)c2)Oc2cc(O)cc(O)c21` (stereo not shown) [compound 8, 5,7,3′,5′-Tetrahydroxy Flavanone], the IC50 in data set [1] is greater than 150 µg/mL; in data set [2] it was 101 µg/mL (≈ 349 µM); in data set [3], greater than 150 µg/mL; in data set [4], greater than 150 µg/mL. Also, the LC50 at 24 h in data set [5] was 2 µg/mL (≈ 6.94 µM). Moreover, the “inhibition of the cell growth or proliferation (in words)” value in data set [6] is “did not show significant inhibition”.
The term melting point denotes the temperature, or range, at which the solid turns liquid. Take `COc1cc(C2CC(=O)c3c(O)cc(OC4OC(COC5OC(C)C(O)C(O)C5O)C(O)C(O)C4O)cc3O2)ccc1O` [compound 9, 5,4′-Dihydroxy-3′-methoxyflavanone-7-(6′′-O-α-L-rhamnopyranosyl)-β-D-glucopyranoside]: the melting point worked out at 256 °C. This molecule also registered an IC50 in data set [1] greater than 150 µg/mL. In data set [2], this molecule yielded an IC50 of 140 µg/mL (≈ 230 µM). This molecule also showed an IC50 in data set [3] greater than 150 µg/mL. In addition, in data set [4], 98.7 µg/mL (≈ 162 µM) corresponded to half-maximal inhibition (IC50).
For the molecule `COc1ccc2cc3[n+](cc2c1OC)CCc1cc2c(cc1-3)OCO2` [berberine hydrochloride, reference compound], in data set [5], the LC50 at 24 h is 26 µg/mL.

The values are drawn from paper PMC3349126, “Evaluation of the Cytotoxicity of Satureja spicigera and Its Main Compounds” (The Scientific World Journal, 2012).
